Results from patent US20170008888A1 (KYORIN PHARMACEUTICAL CO., LTD., priority 2014, published 2017).
Like-named read-outs stand apart in the source and are kept apart here.

Key:
Assay type in all cases: binding
[1] = test system: AurB or AurC; test: Probe-based (AX9989) kinase profiling in Jurkat lysate: AurB or AurC
How it was run: (§1)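 Read-out: LC/MS intensity of desthiobiotinylated kinase active-site peptides, percent inhibition normalized to no-compound lysate. Jurkat lysate with 20 mM MnCl2 received compound for 15 min at room temperature, then 5 μM AX9989 probe; duplicates.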

[2] = target: T1, TAO2 (Homo sapiens, UniProt Q9UL54); test: Probe-based (AX9989) kinase profiling in Jurkat lysate: TAO2; conditions: for inhibition at 0.1 µM: screening concentration 0.1 μM
T1 construct: screened for activity against several kinases in Jurkat cells; endogenous in cells; host or cells: Jurkat cell lysate
T1 sequence (Q9UL54 1-1235): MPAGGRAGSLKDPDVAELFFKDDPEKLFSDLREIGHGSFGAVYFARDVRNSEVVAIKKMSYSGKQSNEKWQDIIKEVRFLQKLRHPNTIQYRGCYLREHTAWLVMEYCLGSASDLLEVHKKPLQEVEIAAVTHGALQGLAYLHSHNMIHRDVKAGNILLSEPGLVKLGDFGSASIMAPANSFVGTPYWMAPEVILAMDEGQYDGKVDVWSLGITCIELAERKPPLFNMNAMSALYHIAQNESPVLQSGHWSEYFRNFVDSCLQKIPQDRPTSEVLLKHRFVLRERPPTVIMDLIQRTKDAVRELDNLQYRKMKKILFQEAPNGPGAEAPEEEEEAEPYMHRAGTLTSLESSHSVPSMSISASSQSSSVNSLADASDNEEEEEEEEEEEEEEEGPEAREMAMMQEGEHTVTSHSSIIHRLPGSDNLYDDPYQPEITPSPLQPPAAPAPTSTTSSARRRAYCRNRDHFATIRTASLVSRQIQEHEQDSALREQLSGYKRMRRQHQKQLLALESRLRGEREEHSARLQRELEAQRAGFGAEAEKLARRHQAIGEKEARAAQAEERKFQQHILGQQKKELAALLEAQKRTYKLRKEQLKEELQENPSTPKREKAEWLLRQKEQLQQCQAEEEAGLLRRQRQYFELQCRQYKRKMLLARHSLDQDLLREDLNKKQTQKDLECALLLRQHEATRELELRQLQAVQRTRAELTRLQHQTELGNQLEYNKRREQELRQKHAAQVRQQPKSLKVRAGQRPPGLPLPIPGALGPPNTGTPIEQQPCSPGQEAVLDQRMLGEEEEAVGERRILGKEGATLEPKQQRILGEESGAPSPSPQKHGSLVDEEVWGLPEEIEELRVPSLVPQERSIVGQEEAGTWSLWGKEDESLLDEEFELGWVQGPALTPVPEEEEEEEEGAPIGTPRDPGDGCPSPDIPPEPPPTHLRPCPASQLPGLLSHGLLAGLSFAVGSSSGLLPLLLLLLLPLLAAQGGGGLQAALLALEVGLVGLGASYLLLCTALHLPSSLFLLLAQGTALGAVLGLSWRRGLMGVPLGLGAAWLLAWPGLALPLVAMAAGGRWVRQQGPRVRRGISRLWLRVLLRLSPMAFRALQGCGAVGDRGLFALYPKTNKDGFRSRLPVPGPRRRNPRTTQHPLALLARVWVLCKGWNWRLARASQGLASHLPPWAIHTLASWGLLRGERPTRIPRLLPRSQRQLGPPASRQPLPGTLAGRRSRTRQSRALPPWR
How it was run: as §1

[3] = target: T2, AurA (Homo sapiens, UniProt O14965); test: Probe-based (AX9989) kinase profiling in Jurkat lysate: AurA; conditions: for inhibition at 0.1 µM: screening concentration 0.1 μM
T2 construct: screened for activity against several kinases in Jurkat cells; endogenous in cells; host or cells: Jurkat cell lysate
T2 sequence (O14965 1-403): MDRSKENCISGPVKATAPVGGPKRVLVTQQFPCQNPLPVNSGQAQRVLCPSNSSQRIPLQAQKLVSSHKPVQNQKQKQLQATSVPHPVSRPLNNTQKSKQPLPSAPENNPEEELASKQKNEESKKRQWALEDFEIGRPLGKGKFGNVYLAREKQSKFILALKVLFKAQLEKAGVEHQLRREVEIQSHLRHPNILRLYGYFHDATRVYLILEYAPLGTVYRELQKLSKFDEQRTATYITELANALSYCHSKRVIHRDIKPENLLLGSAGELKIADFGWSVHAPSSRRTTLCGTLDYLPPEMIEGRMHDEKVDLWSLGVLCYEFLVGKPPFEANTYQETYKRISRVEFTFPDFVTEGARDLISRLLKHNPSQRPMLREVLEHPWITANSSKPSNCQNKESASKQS
How it was run: as §1

[4] = test system: AMPKa1 or AMPKa2; test: Probe-based (AX9989) kinase profiling in Jurkat lysate: AMPKa1 or AMPKa2
How it was run: as §1

[5] = screening concentration 1.0 μM, read-out: Kinase inhibition % at indicated screening concentration: TAO2
[6] = screening concentration 1.0 μM, read-out: Kinase inhibition % at indicated screening concentration: AurA
[7] = read-out: Kinase inhibition % at indicated screening concentration: TAO2
[8] = read-out: Kinase inhibition % at indicated screening concentration: AurA

| SMILES | Kinase inhibition % at indicated screening concentration: AurB or AurC ([1]; screening concentration 1.0 μM) | inhibition at 1 µM [2, 5] [%] | inhibition at 1 µM [3, 6] [%] | Kinase inhibition % at indicated screening concentration: AMPKa1 or AMPKa2 ([4]; screening concentration 1.0 μM) | further results |
| --- | --- | --- | --- | --- | --- |
| CCOc1cc(C(=O)N2CCOCC2)ccc1Nc1cc2c(cn1)N(C)C(=O)c1ccccc1N2C [Compound 111] | E (E is ≦35%) | ≤ 35 | ≤ 35 | E (E is ≦35%) | – |
| CCOc1cc(C(=O)N2CC[C@@H](N(CC)CC)C2)ccc1Nc1cc2c(cn1)N(C)C(=O)c1occc1N2C [Compound 67] | – | – | – | – | Kinase inhibition % at indicated screening concentration: AurB or AurC ([1]; screening concentration 0.1 μM): E (E is ≦35%); inhibition at 0.1 µM [2, 7]: ≤ 35%; inhibition at 0.1 µM [3, 8]: ≤ 35%; Kinase inhibition % at indicated screening concentration: AMPKa1 or AMPKa2 ([4]; screening concentration 0.1 μM): E (E is ≦35%) |
| CCOc1cc(C(=O)N[C@H]2CCCOC2)ccc1Nc1cc2c(cn1)N(C)C(=O)c1ccccc1N2C [Compound 100] | E (E is ≦35%) | ≤ 35 | ≤ 35 | E (E is ≦35%) | – |
| CN1C(=O)c2ccccc2N(C)c2cc(NC3CCOCC3)ncc21 [Compound 102] | E (E is ≦35%) | ≤ 35 | ≤ 35 | E (E is ≦35%) | – |
| CCOc1cc(C(=O)NCCOCCO)ccc1Nc1cc2c(cn1)N(C)C(=O)c1ccccc1N2C [Compound 101] | E (E is ≦35%) | ≤ 35 | ≤ 35 | E (E is ≦35%) | – |
| CCOc1cc(C(=O)N2CCNCC2)ccc1Nc1cc2c(cn1)N(C)C(=O)c1ccccc1N2C [Compound 62] | E (E is ≦35%) | ≤ 35 | ≤ 35 | E (E is ≦35%) | – |
| C[C@@H]1C[C@H](Nc2cc3c(cn2)N(C)C(=O)c2ccccc2N3C)CC[C@H]1O [Compound T115] | – | – | – | – | AurB or AurC Inhibition % at indicated screening concentration ([1]; screening concentration 10 μM): E (E is ≦35%); inhibition at 10 µM ([2]; screening concentration 10 μM, read-out: TAO2 Inhibition % at indicated screening concentration): ≤ 35%; inhibition at 10 µM ([3]; screening concentration 10 μM, read-out: AurA Inhibition % at indicated screening concentration): ≤ 35%; AMPKa1 or AMPKa2 Inhibition % at indicated screening concentration ([4]; screening concentration 10 μM): E (E is ≦35%) |
| CCOc1cc(C(=O)NCCCN(CC)CC)ccc1Nc1cc2c(cn1)N(C)C(=O)c1ccccc1N2C [Compound 54] | E (E is ≦35%) | ≤ 35 | ≤ 35 | E (E is ≦35%) | – |
| CN1CCC(N2CCN(C(=O)c3ccc(Nc4cc5c(cn4)N(C)C(=O)c4ccccc4N5C)c(F)c3)CC2)CC1 [Compound T70] | – | – | – | – | AurB or AurC Inhibition % at indicated screening concentration ([1]; screening concentration 1 μM): E (E is ≦35%); inhibition at 1 µM ([2]; screening concentration 1 μM, read-out: TAO2 Inhibition % at indicated screening concentration): ≤ 35%; inhibition at 1 µM ([3]; screening concentration 1 μM, read-out: AurA Inhibition % at indicated screening concentration): ≤ 35%; AMPKa1 or AMPKa2 Inhibition % at indicated screening concentration ([4]; screening concentration 1 μM): E (E is ≦35%) |
| CCOc1cc(C(=O)NCCN(CC)CC)ccc1Nc1cc2c(cn1)N(C)C(=O)c1ccccc1N2C [Compound 103] | – | – | – | – | Kinase inhibition % at indicated screening concentration: AurB or AurC ([1]; screening concentration 0.1 μM): E (E is ≦35%); inhibition at 0.1 µM [2, 7]: ≤ 35%; inhibition at 0.1 µM [3, 8]: ≤ 35%; Kinase inhibition % at indicated screening concentration: AMPKa1 or AMPKa2 ([4]; screening concentration 0.1 μM): E (E is ≦35%) |
| CCOc1cc(C(=O)NCCN(C(C)C)C(C)C)ccc1Nc1cc2c(cn1)N(C)C(=O)c1ccccc1N2C [Compound 55] | – | – | – | – | Kinase inhibition % at indicated screening concentration: AurB or AurC ([1]; screening concentration 0.1 μM): E (E is ≦35%); inhibition at 0.1 µM [2, 7]: ≤ 35%; inhibition at 0.1 µM [3, 8]: ≤ 35%; Kinase inhibition % at indicated screening concentration: AMPKa1 or AMPKa2 ([4]; screening concentration 0.1 μM): E (E is ≦35%) |
